# Results published in patent US20100093804A1, “NOVEL CRYSTALLINE FORM OF LANSOPRAZOLE” (HETERO DRUGS LIMITED, priority 2006, published 2010).
# Like-named read-outs stand apart in the source and are kept apart here.
# Tests used:
# [1] = stability of the crystalline form over time; format: physicochemical
# [2] = solid-solid transition to form A; cited from earlier work
# [3] = cited from earlier work
compound,measurement,setting,value
"Cc1c(OCC(F)(F)F)ccnc1C[S+]([O-])c1nc2ccccc2[nH]1 (stereo not shown) [lansoprazole form III, 2-[[[3-Methyl-4-(2,2,2-trifluoro-ethoxy)-2-pyridinyl]methyl]sulfinyl]-1H-benzimidazole]",stability of crystalline form,[1],stable
"Cc1c(OCC(F)(F)F)ccnc1C[S+]([O-])c1nc2ccccc2[nH]1 (stereo not shown) [crystalline lansoprazole form B, 2-[[[3-Methyl-4-(2,2,2-trifluoro-ethoxy)-2-pyridinyl]methyl]sulfinyl]-1H-benzimidazole]",stability of crystalline form,[2],unstable
"Cc1c(OCC(F)(F)F)ccnc1C[S+]([O-])c1nc2ccccc2[nH]1 (stereo not shown) [lansoprazole crystalline form II, 2-[[[3-Methyl-4-(2,2,2-trifluoro-ethoxy)-2-pyridinyl]methyl]sulfinyl]-1H-benzimidazole]",stability of crystalline form on storage,[3]; after some period of sample storage at higher temperatures,converted to stable crystalline form I
same,stability of crystalline form,[3]; at temperatures below 0° C.,stable
